Tests used:
Settings in all cases: read-out: Ki app
Lethal factor = target: T1, Lethal factor (Bacillus anthracis, UniProt P15917)
T1 sequence (P15917 whole entry): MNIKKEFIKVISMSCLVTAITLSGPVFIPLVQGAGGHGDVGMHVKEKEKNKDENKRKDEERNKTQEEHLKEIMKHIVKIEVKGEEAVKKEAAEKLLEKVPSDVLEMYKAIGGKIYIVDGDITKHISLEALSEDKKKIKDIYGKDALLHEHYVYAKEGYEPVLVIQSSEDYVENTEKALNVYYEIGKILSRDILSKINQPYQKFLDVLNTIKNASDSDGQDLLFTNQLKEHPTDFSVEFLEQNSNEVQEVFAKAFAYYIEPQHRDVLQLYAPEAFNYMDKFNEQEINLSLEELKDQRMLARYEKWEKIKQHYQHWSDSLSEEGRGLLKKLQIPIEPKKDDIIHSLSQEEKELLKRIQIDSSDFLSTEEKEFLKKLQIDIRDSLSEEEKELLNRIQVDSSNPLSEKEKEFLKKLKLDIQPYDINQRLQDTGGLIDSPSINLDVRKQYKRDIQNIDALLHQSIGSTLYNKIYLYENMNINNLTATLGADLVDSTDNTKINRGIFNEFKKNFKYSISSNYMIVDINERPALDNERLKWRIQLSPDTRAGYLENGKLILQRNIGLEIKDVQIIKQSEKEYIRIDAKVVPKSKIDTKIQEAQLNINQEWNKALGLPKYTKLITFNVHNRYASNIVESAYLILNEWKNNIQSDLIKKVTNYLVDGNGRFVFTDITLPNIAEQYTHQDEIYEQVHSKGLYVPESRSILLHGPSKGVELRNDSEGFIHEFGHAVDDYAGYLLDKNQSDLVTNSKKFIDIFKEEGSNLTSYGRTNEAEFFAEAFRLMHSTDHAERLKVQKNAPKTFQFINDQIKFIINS

[1] = target: Matrix metalloproteinase-14 (Homo sapiens, UniProt P50281); test: Activity at MMP14
[2] = target: Matrix metalloproteinase-9 (Homo sapiens, UniProt P14780); test: Activity at MMP9
Chain of Matrix metalloproteinase-9 (P14780 whole entry): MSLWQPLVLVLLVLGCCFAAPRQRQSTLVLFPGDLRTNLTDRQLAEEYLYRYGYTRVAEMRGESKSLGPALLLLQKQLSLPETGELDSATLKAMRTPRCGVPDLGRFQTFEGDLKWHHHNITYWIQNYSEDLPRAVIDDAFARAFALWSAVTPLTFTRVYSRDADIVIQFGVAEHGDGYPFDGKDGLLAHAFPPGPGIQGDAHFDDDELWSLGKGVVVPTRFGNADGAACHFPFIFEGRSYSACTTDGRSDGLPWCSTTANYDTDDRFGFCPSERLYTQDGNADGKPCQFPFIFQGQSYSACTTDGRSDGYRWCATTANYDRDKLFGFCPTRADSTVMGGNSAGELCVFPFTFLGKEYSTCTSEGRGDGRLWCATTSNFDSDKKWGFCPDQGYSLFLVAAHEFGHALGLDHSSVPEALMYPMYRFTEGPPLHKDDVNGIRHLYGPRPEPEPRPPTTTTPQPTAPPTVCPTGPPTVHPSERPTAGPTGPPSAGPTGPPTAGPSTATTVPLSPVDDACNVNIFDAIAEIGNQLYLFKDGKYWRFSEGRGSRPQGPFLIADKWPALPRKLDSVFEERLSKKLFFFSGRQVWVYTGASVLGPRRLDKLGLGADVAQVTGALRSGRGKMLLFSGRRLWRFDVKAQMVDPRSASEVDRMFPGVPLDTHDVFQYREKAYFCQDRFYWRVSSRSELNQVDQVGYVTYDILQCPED

Stromelysin-1 = Stromelysin-1 (Homo sapiens, UniProt P08254); test: Activity at MMP3
Chain of Stromelysin-1 (P08254 whole entry): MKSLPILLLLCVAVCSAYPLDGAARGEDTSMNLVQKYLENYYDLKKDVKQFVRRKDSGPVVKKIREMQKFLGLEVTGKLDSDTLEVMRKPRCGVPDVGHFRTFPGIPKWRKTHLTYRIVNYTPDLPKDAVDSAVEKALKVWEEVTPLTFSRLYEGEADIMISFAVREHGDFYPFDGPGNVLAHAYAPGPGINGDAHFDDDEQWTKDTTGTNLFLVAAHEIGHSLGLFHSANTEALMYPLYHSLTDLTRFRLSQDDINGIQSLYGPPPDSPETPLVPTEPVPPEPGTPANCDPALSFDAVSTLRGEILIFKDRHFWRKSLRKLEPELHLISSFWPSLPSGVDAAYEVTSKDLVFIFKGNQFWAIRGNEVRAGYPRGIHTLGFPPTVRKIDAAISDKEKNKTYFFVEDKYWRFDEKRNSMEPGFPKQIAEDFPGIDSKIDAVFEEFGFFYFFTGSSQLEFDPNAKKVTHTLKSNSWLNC

[3] = target: Macrophage metalloelastase (Homo sapiens, UniProt P39900); test: Activity at MMP12
Chain of Macrophage metalloelastase (P39900 whole entry): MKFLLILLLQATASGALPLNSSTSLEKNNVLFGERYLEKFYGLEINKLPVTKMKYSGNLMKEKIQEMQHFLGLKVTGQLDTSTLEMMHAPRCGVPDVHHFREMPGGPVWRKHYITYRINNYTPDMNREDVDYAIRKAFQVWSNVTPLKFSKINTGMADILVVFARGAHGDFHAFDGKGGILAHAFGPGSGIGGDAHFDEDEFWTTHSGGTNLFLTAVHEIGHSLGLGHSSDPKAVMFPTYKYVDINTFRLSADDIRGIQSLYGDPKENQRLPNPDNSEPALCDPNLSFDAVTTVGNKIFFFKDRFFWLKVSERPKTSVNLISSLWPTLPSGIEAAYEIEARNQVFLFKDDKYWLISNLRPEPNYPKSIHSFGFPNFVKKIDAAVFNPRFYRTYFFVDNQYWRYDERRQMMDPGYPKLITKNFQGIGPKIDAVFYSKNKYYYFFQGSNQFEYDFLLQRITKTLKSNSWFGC

Interstitial collagenase = target: T2, Interstitial collagenase (Homo sapiens, UniProt P03956); test: Activity at MMP1
T2 sequence (P03956 whole entry): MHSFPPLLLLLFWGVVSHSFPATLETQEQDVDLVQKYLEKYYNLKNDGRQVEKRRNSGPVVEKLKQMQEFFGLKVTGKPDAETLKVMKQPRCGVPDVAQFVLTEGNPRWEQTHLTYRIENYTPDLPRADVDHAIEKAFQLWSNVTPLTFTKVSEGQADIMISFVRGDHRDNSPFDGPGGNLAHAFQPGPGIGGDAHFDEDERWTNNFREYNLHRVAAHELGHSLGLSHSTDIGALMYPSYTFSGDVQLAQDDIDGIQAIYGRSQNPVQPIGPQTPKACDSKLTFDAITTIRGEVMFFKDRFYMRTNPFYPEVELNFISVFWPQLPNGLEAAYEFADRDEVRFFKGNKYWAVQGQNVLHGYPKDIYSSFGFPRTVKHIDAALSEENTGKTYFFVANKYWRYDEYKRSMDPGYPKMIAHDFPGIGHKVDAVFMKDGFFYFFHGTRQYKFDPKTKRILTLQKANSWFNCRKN

| SMILES | Ki (Lethal factor) [µM] | Ki [1] [µM] | Ki [2] [µM] | Ki (Stromelysin-1) [µM] | Ki [3] [µM] | Ki (Interstitial collagenase) [µM] |
| --- | --- | --- | --- | --- | --- | --- |
| NC(N)=NC[C@H]1O[C@H](O[C@H]2[C@H](O)[C@@H](O)[C@H](N=C(N)N)C[C@@H]2N)[C@H](N)[C@@H](O)[C@@H]1O | 10.2 | – | – | – | – | – |
| NC[C@H]1O[C@H](O[C@H]2[C@H](O)[C@@H](O)[C@H](N=C(N)N)C[C@@H]2N=C(N)N)[C@H](N)[C@@H](O)[C@@H]1O | 5.6 | – | – | – | – | – |
| NC[C@H]1O[C@H](O[C@H]2[C@H](O)[C@@H](O)[C@H](N=C(N)N)C[C@@H]2N)[C@H](N=C(N)N)[C@@H](O)[C@@H]1O | 5.3 | – | – | – | – | – |
| NC(N)=NC[C@H]1O[C@H](O[C@H]2[C@H](O)[C@@H](O)[C@H](N)C[C@@H]2N)[C@H](N=C(N)N)[C@@H](O)[C@@H]1O | 7.7 | – | – | – | – | – |
| NC[C@H]1O[C@H](O[C@H]2[C@H](O)[C@@H](O)[C@H](N)C[C@@H]2N=C(N)N)[C@H](N)[C@@H](O)[C@@H]1O | 5.2 | – | – | – | – | – |
| NC[C@H]1O[C@H](O[C@H]2[C@H](O)[C@@H](O)[C@H](N)C[C@@H]2N=C(N)N)[C@H](N=C(N)N)[C@@H](O)[C@@H]1O | 0.7 | > 300 | > 300 | > 300 | > 300 | > 300 |
| N=C(N)NC[C@H]1O[C@H](O[C@H]2[C@H](O)[C@@H](O)[C@H](NC(=N)N)C[C@@H]2NC(=N)N)[C@H](NC(=N)N)[C@@H](O)[C@@H]1O | 0.7 | > 300 | > 300 | > 300 | > 300 | > 300 |
| CO[C@@H]1[C@@H](OC)[C@H](N=C(N)N)C[C@H](N=C(N)N)[C@H]1O[C@H]1O[C@H](CN=C(N)N)[C@@H](OC)[C@H](OC)[C@H]1N=C(N)N | 1.5 | > 300 | > 300 | > 300 | > 300 | > 300 |
| NC(N)=NC[C@H]1O[C@H](O[C@H]2[C@H](O)[C@@H](O)[C@H](N)C[C@@H]2N=C(N)N)[C@H](N=C(N)N)[C@@H](O)[C@@H]1O | 9.2 | – | – | – | – | – |
| NC(N)=NC[C@H]1O[C@H](O[C@H]2[C@H](O)[C@@H](O)[C@H](N=C(N)N)C[C@@H]2N)[C@H](N=C(N)N)[C@@H](O)[C@@H]1O | 3.1 | – | – | – | – | – |
| NC(N)=NC[C@H]1O[C@H](O[C@H]2[C@H](O)[C@@H](O)[C@H](N)C[C@@H]2N)[C@H](N)[C@@H](O)[C@@H]1O | 24.3 | – | – | – | – | – |
| NC(N)=NC[C@H]1O[C@H](O[C@H]2[C@H](O)[C@@H](O)[C@H](N=C(N)N)C[C@@H]2N=C(N)N)[C@H](N)[C@@H](O)[C@@H]1O | 8.7 | – | – | – | – | – |
| NC(N)=NC[C@H]1O[C@H](O[C@H]2[C@H](O)[C@@H](O)[C@H](N)C[C@@H]2N=C(N)N)[C@H](N)[C@@H](O)[C@@H]1O | 8.8 | – | – | – | – | – |
| NC[C@H]1O[C@H](O[C@H]2[C@H](O)[C@@H](O)[C@H](N=C(N)N)C[C@@H]2N)[C@H](N)[C@@H](O)[C@@H]1O | 5 | – | – | – | – | – |
| NC[C@H]1O[C@H](O[C@H]2[C@H](O)[C@@H](O)[C@H](N)C[C@@H]2N)[C@H](N=C(N)N)[C@@H](O)[C@@H]1O | 10.9 | – | – | – | – | – |
| NC[C@H]1O[C@H](O[C@H]2[C@H](O)[C@@H](O)[C@H](N=C(N)N)C[C@@H]2N=C(N)N)[C@H](N=C(N)N)[C@@H](O)[C@@H]1O | 0.5 | > 300 | > 300 | > 300 | > 300 | > 300 |
